Holding throughout (assay): growth of human tumour cells (NCI), 48 h
The subject of assay [1] is KM12.
Assay [2] relates to RPMI-8226.
The subject of assay [3] is SNB-19.
For assay [4], the system named is A498.
Assay [5] concerns OVCAR-3.
Assay [6] relates to HT-29.
Assay [7] relates to SK-OV-3.
In assay [8] the test system is TK-10.
Assay [9] deals with PC-3.
Assay [10] deals with OVCAR-8.
Assay [11] relates to U-251.
Assay [12] deals with RXF 393.
Assay [13] concerns SF-539.
In assay [14] the test system is CCRF-CEM.
Assay [15] deals with SNB-75.
In assay [16] the test system is SF-295.
Assay [17] relates to SR.
Assay [18] relates to OVCAR-5.
The subject of assay [19] is DU-145.
Assay [20] concerns MDA-N.

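Interpolation was linear, between the two tested concentrations surrounding the appropriate level; five concentrations were tested over 48 hours in 96-well plates. GI50 = concentration required for 50% inhibition of growth.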 Calls of active or inactive are those of the source. Rule as the data show it: active = GI50 up to about 1.1 µM and inactive = higher.

For the compound `COc1ccc(CCCCl)c(C2=NCCc3cc(OC)c(OC)cc32)c1`, the GI50 is 38.8 µM (inactive) in [1]; 6.87 µM (inactive) in assay [2]; 30 µM (inactive) in assay [3]; > 100 µM (inactive) in assay [4]; 92.7 µM (inactive) in [5]; 36.1 µM (inactive) in assay [6]. Also, the GI50 in [7] is > 100 µM (inactive); in [8] it was > 100 µM (inactive); in assay [9], 35.3 µM (inactive); in assay [10], 25.6 µM (inactive); in assay [11], 23.6 µM (inactive); in [12] it was 54.7 µM (inactive). For the same compound, the GI50 in [13] is 79.3 µM (inactive); in assay [14], 92.5 µM (inactive); in assay [15], 42.3 µM (inactive); in [16], 48.5 µM (inactive); in assay [17] it was > 100 µM (inactive); in [18], > 100 µM (inactive). Also, the GI50 in [19] was > 100 µM (inactive).
Take `O=C(O)C1CCCCN1C(=O)Cc1c[nH]c2ccccc12` (stereo not drawn): the GI50 in [1], in assay [2], in [3], in assay [5], in [6] and in [7] was > 100 µM (inactive) each time. Also, the GI50 in assay [8], in assay [9], in assay [10], in assay [11], in assay [12] and in [13] was > 100 µM (inactive) in each case. Also, the GI50 in assay [14], in [15], in assay [16], in assay [18], in assay [20] and in [19] was > 100 µM (inactive) throughout.
On to `CNC1c2ccccc2C(=O)c2cc3c(cc21)OCCOCCOCCOCCO3` (stereo not drawn), for which the GI50 is > 100 µM (inactive) in assay [1]; 34.8 µM (inactive) in assay [2]; > 100 µM (inactive) in [3]; 54 µM (inactive) in assay [6]; > 100 µM (inactive) in [7]; > 100 µM (inactive) in assay [8]. Besides, the GI50 in [9] was > 100 µM (inactive); in [10], > 100 µM (inactive); in [11], > 100 µM (inactive); in [13], > 100 µM (inactive); in assay [14], 17.1 µM (inactive); in [15], > 100 µM (inactive). Further, the GI50 was > 100 µM (inactive) in [16], 28.7 µM (inactive) in assay [17], > 100 µM (inactive) in [18] and 96.8 µM (inactive) in assay [20].
`O=C(NCCN1CCCCC1)c1cccc(I)c1`: the GI50 in [1] is > 100 µM (inactive); in assay [2] it was > 100 µM (inactive); in assay [3] it was > 100 µM (inactive); in [4] it was > 100 µM (inactive); in [5], > 100 µM (inactive); in assay [6], 49.7 µM (inactive). Besides, the GI50 in assay [7], in assay [8], in [9], in assay [10], in assay [11] and in assay [12] was > 100 µM (inactive) each time. Besides, the GI50 is > 100 µM (inactive) in assay [13]; > 100 µM (inactive) in [14]; 55.2 µM (inactive) in assay [15]; > 100 µM (inactive) in assay [17]; > 100 µM (inactive) in assay [18].
On to `O=c1[nH]c(=O)c2c([nH]1)[nH]c1ccccc12`, for which the GI50 in assay [1] is 37.8 µM (inactive); in [2], > 100 µM (inactive); in assay [3] it was > 100 µM (inactive); in [4], > 100 µM (inactive); in [5] it was 65.2 µM (inactive); in assay [6], > 100 µM (inactive). Moreover, the GI50 in [7], in [8], in assay [10], in assay [12], in assay [13] and in [14] was > 100 µM (inactive) in each case. Also, the GI50 in [15], in [16], in assay [17], in assay [18], in [20] and in [19] was > 100 µM (inactive) throughout.
As for `Cc1ccc2[nH]c3c(c(=O)n(C)c(=O)n3C)c2c1`, the GI50 in assay [1], in [2], in [3], in [4], in [6] and in assay [7] was > 100 µM (inactive) each time. Also, the GI50 in assay [8] is > 100 µM (inactive); in assay [10], > 100 µM (inactive); in assay [11], > 100 µM (inactive); in assay [12], > 10 µM (inactive); in assay [13] it was > 100 µM (inactive); in assay [14], > 100 µM (inactive). For the same compound, the GI50 in [15] is > 100 µM (inactive); in assay [16] it was > 100 µM (inactive); in [17] it was 84.9 µM (inactive); in assay [18] it was > 100 µM (inactive); in assay [20], > 100 µM (inactive); in assay [19] it was > 100 µM (inactive).
As to `CCOC(=O)CNC(SC)=C(C#N)C#N`, the GI50 in [1], in [2], in assay [3], in [4], in assay [5] and in assay [6] was > 100 µM (inactive) in each case. The GI50 in [7], in [8], in assay [10], in assay [11], in [12] and in assay [13] was > 100 µM (inactive) each time. Further, the GI50 in [14], in assay [15], in assay [16], in assay [17] and in assay [18] was > 100 µM (inactive) each time.
In the case of `O=C(/C=N/O)c1c(-c2ccccc2)[nH]c(-c2ccccc2)c1-c1ccccc1`, the GI50 was 13.6 µM (inactive) in assay [1]; 5.35 µM (inactive) in assay [2]; 15.3 µM (inactive) in assay [3]; 29.2 µM (inactive) in [4]; 13.1 µM (inactive) in assay [5]; 21.9 µM (inactive) in assay [6]. For the same compound, the GI50 is 16.1 µM (inactive) in [7]; 21.3 µM (inactive) in [8]; 14.5 µM (inactive) in assay [11]; 12.5 µM (inactive) in [12]; 13.2 µM (inactive) in assay [13]; 16.6 µM (inactive) in assay [14]. Further, the GI50 was 18.3 µM (inactive) in assay [15]; 14.3 µM (inactive) in [16]; 0.0481 µM (active) in [17]; 0.228 µM (active) in [18]; 0.927 µM (active) in assay [19].
Take `N#CCc1n[nH]c2nc(SCc3ccccc3)nc(N3CCCCC3)c12`: the GI50 was 17.7 µM (inactive) in assay [1]; 27.1 µM (inactive) in assay [2]; 18.9 µM (inactive) in assay [3]; 30.5 µM (inactive) in assay [4]; 20.7 µM (inactive) in assay [5]; 20.3 µM (inactive) in [6]. For the same compound, the GI50 in assay [7] is 26.4 µM (inactive); in assay [8], 23.1 µM (inactive); in [9], 18.8 µM (inactive); in assay [10] it was 38.9 µM (inactive); in assay [11], 18.7 µM (inactive); in assay [12], 17.1 µM (inactive). The GI50 in [13] was 21.4 µM (inactive); in assay [14] it was 17.3 µM (inactive); in [15] it was 18.2 µM (inactive); in assay [16], 19.6 µM (inactive); in [18], 20.2 µM (inactive); in assay [19] it was 18.2 µM (inactive).
In the case of `CC(C)=CCC/C(C)=C/COc1c2ccoc2cc2oc(=O)ccc12` [BERGAMOTTIN], the GI50 is 32.7 µM (inactive) in assay [1]; 17.1 µM (inactive) in [2]; 32.3 µM (inactive) in assay [3]; 23.1 µM (inactive) in [4]; 25.4 µM (inactive) in assay [5]; 19.7 µM (inactive) in assay [6]. Also, the GI50 in [7] is 27.5 µM (inactive); in assay [8], 42.2 µM (inactive); in [9], 29.9 µM (inactive); in assay [10] it was 43.7 µM (inactive); in assay [11], 20.6 µM (inactive); in [13] it was 37.2 µM (inactive). Moreover, the GI50 in assay [14] was 18 µM (inactive); in assay [16], 25.4 µM (inactive); in assay [17], 15.2 µM (inactive); in [18], 23.8 µM (inactive); in assay [20], 34.7 µM (inactive).
Regarding `CCOC(=O)C1CCCN1C(=O)c1ccccc1Cl` (stereo not drawn), the GI50 in assay [1], in assay [2], in [3], in assay [4], in [5] and in assay [6] was > 100 µM (inactive) throughout. The GI50 in assay [8], in assay [10], in assay [11], in [12], in assay [13] and in [14] was > 100 µM (inactive) in each case. Besides, the GI50 in [15], in assay [16], in [17], in assay [18], in assay [20] and in [19] was > 100 µM (inactive) each time.

(Values after ChEMBL document CHEMBL1201862, “PubChem BioAssay data set” (2004).)
